Reference: the kinase profiling compilation of Christmann-Franck et al. (2016)

Columns and labels:
[1] = biological target: PIM1 (human) (UniProt P11309); experiment: SelectScreen, TR FRET
[2] = biological target: PIM2 (human) (UniProt Q9P1W9); experiment: SelectScreen, TR FRET
[3] = biological target: DYRK1B (human) (UniProt Q9Y463); experiment: KINOMEscan competition binding; conditions: compound 10.0 µM
[4] = biological target: PLK4 (human) (UniProt O00444); experiment: KINOMEscan competition binding; conditions: compound 10.0 µM
[5] = biological target: PIK3CD (human) (UniProt O00329); experiment: KINOMEscan competition binding; conditions: compound 10.0 µM
[6] = biological target: TAOK1 (human) (UniProt Q7L7X3); experiment: KINOMEscan competition binding; conditions: compound 10.0 µM
[7] = biological target: RPS6KA2 KD2 (human) (UniProt Q15349); experiment: KINOMEscan competition binding; conditions: compound 10.0 µM
[8] = biological target: MAP2K3 (human) (UniProt P46734); experiment: KINOMEscan competition binding; conditions: compound 10.0 µM
[9] = biological target: ACVR2B (human) (UniProt Q13705); experiment: KINOMEscan competition binding; conditions: compound 10.0 µM
[10] = biological target: DAPK1 (human) (UniProt P53355); experiment: KINOMEscan competition binding; conditions: compound 10.0 µM
[11] = biological target: CLK1 (human) (UniProt P49759); experiment: KINOMEscan competition binding; conditions: compound 10.0 µM
[12] = biological target: STK17A (human) (UniProt Q9UEE5); experiment: KINOMEscan competition binding; conditions: compound 10.0 µM
[13] = biological target: TGFBR2 (human) (UniProt P37173); experiment: KINOMEscan competition binding; conditions: compound 10.0 µM
[14] = biological target: STK24 (human) (UniProt Q9Y6E0); experiment: KINOMEscan competition binding; conditions: compound 10.0 µM
[15] = biological target: DAPK2 (human) (UniProt Q9UIK4); experiment: KINOMEscan competition binding; conditions: compound 10.0 µM
[16] = biological target: RPS6KA1 KD2 (human) (UniProt Q15418); experiment: KINOMEscan competition binding; conditions: compound 10.0 µM
[17] = biological target: BTK (human) (UniProt Q06187); experiment: KINOMEscan competition binding; conditions: compound 10.0 µM
[18] = biological target: PIM3 (human) (UniProt Q86V86); experiment: KINOMEscan competition binding; conditions: compound 10.0 µM
[19] = biological target: MAP2K4 (human) (UniProt P45985); experiment: KINOMEscan competition binding; conditions: compound 10.0 µM
[20] = biological target: GAK (human) (UniProt O14976); experiment: KINOMEscan competition binding; conditions: compound 10.0 µM
[21] = biological target: CLK4 (human) (UniProt Q9HAZ1); experiment: KINOMEscan competition binding; conditions: compound 10.0 µM
[22] = biological target: PIK3CB (human) (UniProt P42338); experiment: KINOMEscan competition binding; conditions: compound 10.0 µM
[23] = biological target: CDK7 (human) (UniProt P50613); experiment: KINOMEscan competition binding; conditions: compound 10.0 µM
[24] = biological target: MYLK4 (human) (UniProt Q86YV6); experiment: KINOMEscan competition binding; conditions: compound 10.0 µM
[25] = biological target: CLK2 (human) (UniProt P49760); experiment: KINOMEscan competition binding; conditions: compound 10.0 µM
[26] = biological target: MAP3K7 (human) (UniProt O43318); experiment: KINOMEscan competition binding; conditions: compound 10.0 µM
[27] = biological target: CSNK2A2 (human) (UniProt P19784); experiment: KINOMEscan competition binding; conditions: compound 10.0 µM
[28] = biological target: PIM1 (human) (UniProt P11309); experiment: KINOMEscan competition binding; conditions: compound 10.0 µM
[29] = biological target: STK17B (human) (UniProt O94768); experiment: KINOMEscan competition binding; conditions: compound 10.0 µM
[30] = biological target: NUAK2 (human) (UniProt Q9H093); experiment: KINOMEscan competition binding; conditions: compound 10.0 µM
[31] = biological target: HIPK1 (human) (UniProt Q86Z02); experiment: KINOMEscan competition binding; conditions: compound 10.0 µM
[32] = biological target: RIOK2 (human) (UniProt Q9BVS4); experiment: KINOMEscan competition binding; conditions: compound 10.0 µM
[33] = biological target: CSNK2A1 (human) (UniProt P68400); experiment: KINOMEscan competition binding; conditions: compound 10.0 µM
[34] = biological target: GSK3A (human) (UniProt P49840); experiment: KINOMEscan competition binding; conditions: compound 10.0 µM
[35] = biological target: TYK2 JH2 pseudokinase (human) (UniProt P29597); experiment: KINOMEscan competition binding; conditions: compound 10.0 µM
[36] = biological target: RPS6KA6 KD2 (human) (UniProt Q9UK32); experiment: KINOMEscan competition binding; conditions: compound 10.0 µM
[37] = biological target: ACVR2A (human) (UniProt P27037); experiment: KINOMEscan competition binding; conditions: compound 10.0 µM
[38] = biological target: TLK1 (human) (UniProt Q9UKI8); experiment: KINOMEscan competition binding; conditions: compound 10.0 µM
[39] = biological target: PIM2 (human) (UniProt Q9P1W9); experiment: KINOMEscan competition binding; conditions: compound 10.0 µM
[40] = biological target: DAPK3 (human) (UniProt O43293); experiment: KINOMEscan competition binding; conditions: compound 10.0 µM
[41] = biological target: MAPK10 (human) (UniProt P53779); experiment: KINOMEscan competition binding; conditions: compound 10.0 µM
[42] = biological target: CSNK1D (human) (UniProt P48730); experiment: KINOMEscan competition binding; conditions: compound 10.0 µM
[43] = biological target: MAPK8 (human) (UniProt P45983); experiment: KINOMEscan competition binding; conditions: compound 10.0 µM
[44] = biological target: JAK1 JH2 pseudokinase (human) (UniProt P23458); experiment: KINOMEscan competition binding; conditions: compound 10.0 µM
[45] = biological target: MKNK2 (human) (UniProt Q9HBH9); experiment: KINOMEscan competition binding; conditions: compound 10.0 µM
[46] = biological target: PAK2 (human) (UniProt Q13177); experiment: KINOMEscan competition binding; conditions: compound 10.0 µM
[47] = biological target: ZAP70 (human) (UniProt P43403); experiment: KINOMEscan competition binding; conditions: compound 10.0 µM
[48] = biological target: TTK (human) (UniProt P33981); experiment: KINOMEscan competition binding; conditions: compound 10.0 µM
Sequence of TTK (human) (P33981 whole entry, looked up): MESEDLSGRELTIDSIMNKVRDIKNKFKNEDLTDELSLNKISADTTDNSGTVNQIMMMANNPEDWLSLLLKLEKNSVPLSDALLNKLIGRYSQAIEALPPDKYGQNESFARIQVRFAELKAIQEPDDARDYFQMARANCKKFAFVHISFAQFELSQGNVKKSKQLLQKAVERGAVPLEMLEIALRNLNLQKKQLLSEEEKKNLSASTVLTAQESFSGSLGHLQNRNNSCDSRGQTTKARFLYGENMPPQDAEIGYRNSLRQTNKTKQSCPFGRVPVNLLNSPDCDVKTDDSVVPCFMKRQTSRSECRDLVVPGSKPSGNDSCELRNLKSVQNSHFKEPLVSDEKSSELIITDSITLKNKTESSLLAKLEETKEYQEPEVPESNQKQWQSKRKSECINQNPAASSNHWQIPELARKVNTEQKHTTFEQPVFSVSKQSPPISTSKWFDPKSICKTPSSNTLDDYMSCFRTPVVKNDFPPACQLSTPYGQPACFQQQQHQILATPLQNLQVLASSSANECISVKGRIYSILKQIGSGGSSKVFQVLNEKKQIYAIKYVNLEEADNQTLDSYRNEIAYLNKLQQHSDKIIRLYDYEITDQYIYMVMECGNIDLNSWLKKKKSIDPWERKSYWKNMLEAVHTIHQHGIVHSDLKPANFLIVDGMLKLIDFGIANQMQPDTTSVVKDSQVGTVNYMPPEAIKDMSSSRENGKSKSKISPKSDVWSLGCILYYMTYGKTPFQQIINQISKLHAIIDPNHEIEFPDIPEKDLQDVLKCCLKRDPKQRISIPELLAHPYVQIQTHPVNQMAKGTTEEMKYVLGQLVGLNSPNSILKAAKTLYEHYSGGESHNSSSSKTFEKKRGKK

Sequence of PIM2 (human) (Q9P1W9 whole entry, looked up): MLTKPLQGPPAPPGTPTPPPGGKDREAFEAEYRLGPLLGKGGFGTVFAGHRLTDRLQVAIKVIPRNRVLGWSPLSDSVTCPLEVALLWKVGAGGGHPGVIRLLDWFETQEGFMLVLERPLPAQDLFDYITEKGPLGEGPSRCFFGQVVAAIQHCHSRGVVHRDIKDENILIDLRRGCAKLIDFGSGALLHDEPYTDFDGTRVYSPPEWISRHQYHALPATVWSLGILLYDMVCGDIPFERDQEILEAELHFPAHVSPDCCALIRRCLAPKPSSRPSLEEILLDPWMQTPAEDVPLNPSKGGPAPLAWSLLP
Sequence of PIM1 (human) (P11309 whole entry, looked up): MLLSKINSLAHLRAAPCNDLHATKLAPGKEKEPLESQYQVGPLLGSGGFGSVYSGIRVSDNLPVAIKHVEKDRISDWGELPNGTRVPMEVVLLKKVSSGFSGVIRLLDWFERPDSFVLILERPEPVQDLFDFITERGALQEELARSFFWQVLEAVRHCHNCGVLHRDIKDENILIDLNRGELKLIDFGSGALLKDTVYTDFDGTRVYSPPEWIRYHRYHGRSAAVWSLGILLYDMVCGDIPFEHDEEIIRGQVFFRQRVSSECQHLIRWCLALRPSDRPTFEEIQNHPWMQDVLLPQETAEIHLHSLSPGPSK
Sequence of TYK2 JH2 pseudokinase (human) (P29597 whole entry, looked up): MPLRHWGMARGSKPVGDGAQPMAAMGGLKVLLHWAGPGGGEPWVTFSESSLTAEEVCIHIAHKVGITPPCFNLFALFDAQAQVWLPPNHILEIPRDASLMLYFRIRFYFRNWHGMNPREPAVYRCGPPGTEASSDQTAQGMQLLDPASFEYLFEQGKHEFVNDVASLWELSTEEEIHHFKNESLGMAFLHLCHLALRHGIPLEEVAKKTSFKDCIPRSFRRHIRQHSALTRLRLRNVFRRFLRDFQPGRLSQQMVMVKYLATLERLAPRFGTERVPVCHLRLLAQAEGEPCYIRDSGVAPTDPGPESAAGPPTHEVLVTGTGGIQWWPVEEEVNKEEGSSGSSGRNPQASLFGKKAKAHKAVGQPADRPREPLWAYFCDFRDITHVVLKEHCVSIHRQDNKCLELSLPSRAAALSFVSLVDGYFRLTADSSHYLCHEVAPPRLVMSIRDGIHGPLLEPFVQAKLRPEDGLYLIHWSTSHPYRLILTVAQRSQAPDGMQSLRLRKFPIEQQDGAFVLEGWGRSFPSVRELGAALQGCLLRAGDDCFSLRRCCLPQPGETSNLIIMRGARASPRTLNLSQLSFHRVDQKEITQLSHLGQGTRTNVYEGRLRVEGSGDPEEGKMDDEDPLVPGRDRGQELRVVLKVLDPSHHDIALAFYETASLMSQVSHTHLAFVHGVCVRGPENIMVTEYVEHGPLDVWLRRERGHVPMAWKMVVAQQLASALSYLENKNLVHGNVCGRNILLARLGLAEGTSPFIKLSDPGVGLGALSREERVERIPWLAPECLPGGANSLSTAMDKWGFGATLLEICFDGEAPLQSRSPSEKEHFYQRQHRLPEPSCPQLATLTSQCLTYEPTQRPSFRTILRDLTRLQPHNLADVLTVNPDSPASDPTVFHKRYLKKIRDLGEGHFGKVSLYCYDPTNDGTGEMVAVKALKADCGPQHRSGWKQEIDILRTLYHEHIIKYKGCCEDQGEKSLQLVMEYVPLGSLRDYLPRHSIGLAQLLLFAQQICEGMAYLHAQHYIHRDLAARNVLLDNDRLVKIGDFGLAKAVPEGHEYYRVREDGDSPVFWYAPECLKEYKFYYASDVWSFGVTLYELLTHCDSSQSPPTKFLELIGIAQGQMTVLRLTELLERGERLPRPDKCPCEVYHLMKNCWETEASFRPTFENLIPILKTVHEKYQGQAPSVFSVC
Sequence of STK17B (human) (O94768 whole entry, looked up): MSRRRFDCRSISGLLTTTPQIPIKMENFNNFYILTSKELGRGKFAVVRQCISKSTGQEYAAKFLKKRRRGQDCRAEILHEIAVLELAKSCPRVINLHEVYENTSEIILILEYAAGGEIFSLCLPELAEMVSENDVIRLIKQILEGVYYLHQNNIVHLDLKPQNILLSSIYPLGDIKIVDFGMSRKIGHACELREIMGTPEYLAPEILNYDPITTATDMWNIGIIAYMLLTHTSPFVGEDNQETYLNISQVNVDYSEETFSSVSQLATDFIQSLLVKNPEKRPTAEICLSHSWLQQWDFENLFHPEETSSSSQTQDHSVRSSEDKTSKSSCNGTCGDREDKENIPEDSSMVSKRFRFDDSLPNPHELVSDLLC
Sequence of MAP2K3 (human) (P46734 whole entry, looked up): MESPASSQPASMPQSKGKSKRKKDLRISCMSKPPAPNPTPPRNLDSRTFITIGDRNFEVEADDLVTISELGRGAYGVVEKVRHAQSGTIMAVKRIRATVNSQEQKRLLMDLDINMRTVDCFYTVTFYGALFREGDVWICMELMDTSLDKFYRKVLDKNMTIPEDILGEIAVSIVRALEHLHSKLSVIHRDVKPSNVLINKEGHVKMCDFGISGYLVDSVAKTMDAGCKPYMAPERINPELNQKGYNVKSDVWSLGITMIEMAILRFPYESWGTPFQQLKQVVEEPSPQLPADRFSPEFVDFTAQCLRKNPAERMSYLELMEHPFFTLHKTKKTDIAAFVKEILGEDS
Sequence of HIPK1 (human) (Q86Z02 whole entry, looked up): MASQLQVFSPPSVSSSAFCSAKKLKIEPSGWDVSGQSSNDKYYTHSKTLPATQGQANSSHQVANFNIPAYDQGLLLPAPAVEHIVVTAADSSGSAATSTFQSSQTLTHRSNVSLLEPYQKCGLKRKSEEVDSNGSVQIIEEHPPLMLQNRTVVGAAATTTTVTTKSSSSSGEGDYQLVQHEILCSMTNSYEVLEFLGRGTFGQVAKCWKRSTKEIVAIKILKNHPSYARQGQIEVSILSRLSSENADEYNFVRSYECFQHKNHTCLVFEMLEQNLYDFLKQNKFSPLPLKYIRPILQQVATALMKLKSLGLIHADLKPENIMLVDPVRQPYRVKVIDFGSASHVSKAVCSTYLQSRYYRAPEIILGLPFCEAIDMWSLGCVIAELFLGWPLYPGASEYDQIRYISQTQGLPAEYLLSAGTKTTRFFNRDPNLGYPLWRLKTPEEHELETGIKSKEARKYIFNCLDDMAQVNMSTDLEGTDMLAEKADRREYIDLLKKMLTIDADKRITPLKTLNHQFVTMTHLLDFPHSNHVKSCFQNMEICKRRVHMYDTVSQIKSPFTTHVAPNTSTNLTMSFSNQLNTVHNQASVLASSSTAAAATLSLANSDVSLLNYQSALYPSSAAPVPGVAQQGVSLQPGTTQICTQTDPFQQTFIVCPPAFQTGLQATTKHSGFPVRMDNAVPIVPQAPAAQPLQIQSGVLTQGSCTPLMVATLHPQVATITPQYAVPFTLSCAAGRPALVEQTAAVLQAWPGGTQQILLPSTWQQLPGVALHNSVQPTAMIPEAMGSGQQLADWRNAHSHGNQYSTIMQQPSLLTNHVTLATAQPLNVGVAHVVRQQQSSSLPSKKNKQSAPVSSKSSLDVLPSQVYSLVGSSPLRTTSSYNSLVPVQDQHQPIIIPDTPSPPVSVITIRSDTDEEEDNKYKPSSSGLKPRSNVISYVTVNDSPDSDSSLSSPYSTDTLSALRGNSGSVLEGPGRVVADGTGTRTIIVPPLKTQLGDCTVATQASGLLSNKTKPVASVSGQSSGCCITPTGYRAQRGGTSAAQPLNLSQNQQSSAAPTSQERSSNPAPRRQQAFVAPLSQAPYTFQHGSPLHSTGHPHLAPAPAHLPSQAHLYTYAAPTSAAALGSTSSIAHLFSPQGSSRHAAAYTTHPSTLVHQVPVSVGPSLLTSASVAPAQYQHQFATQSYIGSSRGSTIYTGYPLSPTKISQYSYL

With N=C1NC(=O)/C(=C/c2ccc(-c3cccc4cc[nH]c34)o2)S1 the IC50 [1] was 0.961 µM, the IC50 [2] was 1.77 µM and the kinase still bound, per cent of control [3] was 7.4%. The kinase still bound, per cent of control [4] was 18%, the kinase still bound, per cent of control [5] was 23% and the kinase still bound, per cent of control [6] was 6%. The kinase still bound, per cent of control [7] was 24%, the kinase still bound, per cent of control [8] was 17% and the kinase still bound, per cent of control [9] was 20%. It also gave a kinase still bound, per cent of control [10] of 4.4%, a kinase still bound, per cent of control [11] of 17% and a kinase still bound, per cent of control [12] of 0.05%. It also gave a kinase still bound, per cent of control [13] of 5.8%, a kinase still bound, per cent of control [14] of 27% and a kinase still bound, per cent of control [15] of 12%. It also gave a kinase still bound, per cent of control [16] of 17%, a kinase still bound, per cent of control [17] of 18% and a kinase still bound, per cent of control [18] of 4%. For the same compound, the kinase still bound, per cent of control [19] was 3.9%, the kinase still bound, per cent of control [20] was 5% and the kinase still bound, per cent of control [21] was 20%. For the same compound, the kinase still bound, per cent of control [22] was 4.5%, the kinase still bound, per cent of control [23] was 20% and the kinase still bound, per cent of control [24] was 32%. The kinase still bound, per cent of control [25] was 7.7%, the kinase still bound, per cent of control [26] was 34% and the kinase still bound, per cent of control [27] was 24%. The kinase still bound, per cent of control [28] was 4.9%, the kinase still bound, per cent of control [29] was 0.4% and the kinase still bound, per cent of control [30] was 21%. The kinase still bound, per cent of control [31] was 0.45%, the kinase still bound, per cent of control [32] was 5.5% and the kinase still bound, per cent of control [33] was 26%. The kinase still bound, per cent of control [34] was 20%, the kinase still bound, per cent of control [35] was 2.2% and the kinase still bound, per cent of control [36] was 30%. It also gave a kinase still bound, per cent of control [37] of 25%, a kinase still bound, per cent of control [38] of 22% and a kinase still bound, per cent of control [39] of 0.45%. It also gave a kinase still bound, per cent of control [40] of 16%, a kinase still bound, per cent of control [41] of 31% and a kinase still bound, per cent of control [42] of 30%. For the same compound, the kinase still bound, per cent of control [43] was 14%, the kinase still bound, per cent of control [44] was 30% and the kinase still bound, per cent of control [45] was 11%. It also gave a kinase still bound, per cent of control [46] of 32%, a kinase still bound, per cent of control [47] of 8.2% and a kinase still bound, per cent of control [48] of 21%.
